This assay relates to SARS-CoV-2 strain BavPat1. Briefly: Determination of EC50 and EC90: inhibition of SARS-CoV-2 viral RNA replication in Vero E6 cells (RT-qPCR). The settings on record: Severe acute respiratory syndrome coronavirus 2, Vero C1008, 48 h, read-out: EC50 (compound concentration required to inhibit viral RNA replication by 50%). It is filed as cell-based. (Quantitative PCR measures a nucleic acid by following its amplification.)

Where two headings read alike, the source gives them in different places.

Here are results for two molecules from patent US20230181539A1, “METHODS FOR THE TREATMENT OF CORONAVIRUS INFECTIONS” (INSERM (INSTITUT NATIONAL DE LA SANTÉ ET DE LA RECHERCHE …, priority 2020, published 2023).

Consider `CCn1c(CO)nn(-c2cc(O[C@@H](C)C(F)(F)F)c(C(=O)Nc3c(F)cccc3Cl)cc2F)c1=O` [BAY-2402234, N-(2-Chloro-6-fluorophenyl)-4-[4-ethyl-3-(hydroxymethyl)-5-oxo-1,2,4-triazol-1-yl]-5-fluoro-2-[(2S)-1,1,1-trifluoropropan-2-yl]oxybenzamide], for which, where the note is “Vero E6 cells, MOI 0.002, 2 days of culture, viral RNA in supernatant”, the EC50 was less than 40 nM.

Regarding `CCC(CC)COC(=O)[C@H](C)N[P@](=O)(OC[C@H]1O[C@@](C#N)(c2ccc3c(N)ncnn23)[C@H](O)[C@@H]1O)Oc1ccccc1` [remdesivir, Remdesivir], the EC50 was 2700 nM.
